Data set [1] relates to Tau protein at Serin396 in differentiated SH-SY5Y cells. Kind of data set: In vitro SH-SY5Y assay, tau phosphorylation. The class given is cell-based, human. The settings on record: RA- and BDNF-differentiated SH-SY5Y cells, 90-120 min incubation, Western Blot or ELISA. An excerpt: Abnormal tau phosphorylation and deregulated CDK5/p35 activity are closely linked to each other and represent hallmarks of neurodegenerative diseases such as Alzheimer's disease, Parkinson's disease or Amyotrophic lateral sclerosis. The human neuroblastoma cell line SH-SY5Y can be utilized as an in vitro model to investigate CDK5 function and the efficacy of CDK5 specific inhibitors. SH-SY5Y cells express tau protein which harbors various phosphorylation sites known to be phosphorylated by several kinases including CDK5. SH-SY5Y cells can be differentiated into neuron-like cells by exposure to 10 μM all trans-retinoic acid for 3 days and subsequent exposure to 50 ng/ml human recombinant brain-derived neurotrophic factor for 3-5 days, thereby upregulating neuronal markers, including tau protein. In addition CDK5 and p35 protein levels were increased during differentiation. […]
Concentrations of total tau, pS396 tau and pT231 tau within the cell culture lysates are measured by using commercial ELISA Kits (BioSource: human total tau: KHB0042; human pS396 tau: KHB7031; human pT231 tau: KHB7051) according to the manufacturers instructions or by using Western Blots probing with total and phospho-specific antibodies (antibodies: total tau: Santa Cruz, sc-21796; pS396 tau: Santa Cruz, sc-12414; pT231 tau, AT180: Pierce Endogen, MN1040; pS202 tau: AT8: Pierce Endogen, MN1020). […]

Molecules are shown by their SMILES.

On to `CCOc1ccccc1-c1cc(Nc2ccc(CS(N)(=O)=O)cc2)ncn1` [Compound 6, {4-[6-(2-Ethoxy-phenyl)-pyrimidin-4-ylamino]-phenyl}-methanesulfonamide], for which the melting point lay in the range of 213.5 to 215.1 °C.

Turning to `NS(=O)(=O)Cc1ccc(Nc2cc(-c3ccccc3OCc3ccccc3)ncn2)cc1` [Compound 8, {4-[6-(2-Benzyloxy-phenyl)-pyrimidin-4-ylamino]-phenyl}-methanesulfonamide], the “effect on Tau phosphorylation at Serin396” value in data set [1] is reported as “significant inhibitory effect”.

`COCCCNS(=O)(=O)Cc1cccc(Nc2cc(-c3ccccc3OC)ncn2)c1` [Reference compound 3, C-{3-[6-(2-methoxy-phenyl)-pyrimidin-4-ylamino]-phenyl}-N-(3-methoxy-propyl)-methanesulfonamide] showed a melting point of 149.2 to 150.8 °C.

What is called melting point is the temperature of the solid-liquid transition.

Values taken from US20080275063A1, “Inhibitors of protein kinases” (priority 2007, published 2008).
